Among the data in US6667311B2, “Nitrogen substituted biaryl purine derivatives as potent antiproliferative agents” (Albany Molecular Research, Inc., priority 2001, dated 2003) are GI50 values, retold here.

Bounds are passed on as bounds.

Type in all cases: cell-based, human
One test relates to MDA-MB-231/ATCC. Nature of the test: NCI growth inhibition, MDA-MB-231/ATCC. Particulars: MDA-MB-231/ATCC (Breast).
The test system of a further test is NCI/ADR-RES. Nature of the test: NCI growth inhibition, NCI/ADR-RES. To be noted: NCI/ADR-RES (Breast).
In the next test the test system is HCT-15. As to the kind of experiment: NCI growth inhibition, HCT-15. To be noted: HCT-15 (Colon).
A further test deals with CCRF-CEM. Nature of the test: NCI growth inhibition, CCRF-CEM. To be noted: CCRF-CEM (Leukemia).
The subject of the next test is LOX IMVI. Nature of the test: NCI growth inhibition, LOX IMVI. Particulars: LOX IMVI (Melanoma).
Another test has as its system UACC-257. Nature of the test: NCI growth inhibition, UACC-257. Particulars: UACC-257 (Melanoma).
A further test deals with NCI-H23. As to the kind of experiment: NCI growth inhibition, NCI-H23. To be noted: NCI-H23 (Non-Small Cell Lung).
For the next test, the system named is NCI-H322M. As to the kind of experiment: NCI growth inhibition, NCI-H322M. Particulars: NCI-H322M (Non-Small Cell Lung).
For a further test, the system named is NCI-H460. As to the kind of experiment: NCI growth inhibition, NCI-H460. Particulars: NCI-H460 (Non-Small Cell Lung).
For another test, the system named is IGROV1. As to the kind of experiment: NCI growth inhibition, IGROV1. To be noted: IGROV1 (Ovarian).
In a further test the test system is OVCAR-5. As to the kind of experiment: NCI growth inhibition, OVCAR-5. Particulars: OVCAR-5 (Ovarian).
The next test has as its system PC-3. Nature of the test: NCI growth inhibition, PC-3. To be noted: PC-3 (Prostate).
The test system of another test is ACHN. Nature of the test: NCI growth inhibition, ACHN. Particulars: ACHN (Renal).

The term GI50 denotes the concentration that inhibits growth by half. A higher GI50 goes with lower sensitivity of the cells. Regarding `CC(=O)N[C@H]1CC[C@H](Nc2nc(NCc3ccc(-c4ccccc4)nc3)c3ncn(C(C)C)c3n2)CC1` [Compound 87], the GI50 with MDA-MB-231/ATCC is under 10 nM; in the test with NCI/ADR-RES, 280 nM; in the test on HCT-15, 66 nM; with CCRF-CEM, under 10 nM; in the test on LOX IMVI it was 27 nM; with UACC-257, 17 nM. For the same compound, the GI50 in the test with NCI-H23 is 22 nM; with NCI-H322M it was 21 nM; with NCI-H460, 220 nM; in the test with IGROV1, 52 nM; in the test on OVCAR-5, 51 nM; with PC-3 it was 18 nM. In the test on ACHN, this compound showed a GI50 of 190 nM.
